Experiments:
Format in all cases: cell-based, Human
[1] = test system: CCM2-depleted endothelial cells; experiment: Ki67 immunofluorescence staining (proliferative marker); details: 400nM added to siCCM2 ECs; Figure 1E
Experimental: (§1) Pooled Human Umbilical Vein Endothelial Cells (HUVEC) were obtained from Pelobiotech. Upon reception, HUVEC at P0 were expanded over 2 passages in 100µg/ml collagen 1 (from rat tail, BD) coated flasks in complete EGM-2 medium (Lonza) supplemented with 100 U/ml penicillin and 100 µg/ml streptomycin at 37°C in a 5% CO2 - 3% O2 humidified chamber. HUVEC at passage 3 were transfected twice at 24 h-intervals with 30 nM siRNA and Lipofectamine RNAi max (Life Technologies, ref. 13778-150) according to the manufacturer's instructions in OptiMEM at 37°C in a regular 5% CO2 in a humidified chamber. For double transfections, 30 nM of each siRNA duplexes (Dharmacon smartpool ON-TARGET plus Thermo Scientific) was used: Non-targeting siRNA #1 (ref. D-001810-01), CCM2 siRNA (ref. L-014728-01) and TRPV4 siRNA (ref. L-004195-00).
Transfected HUVEC were seeded at 3x10^4 cells (sparsed, for Ki67 staining) or […] (confluent, for VE-cadherin staining) in 24-well plates on coverslips coated with 10 µg/ml fibronectin (from human plasma, Sigma Aldrich) and incubated overnight (Ki67 experiment) or for 48h (VE-cadherin experiment) in complete EBM-2 medium in presence or absence of the calcium channels inhibitors dissolved in DMSO. […] The percentage of Ki67 positive cells was counted manually out of more than 130 cells total.

[2] = test system: CCM2-depleted endothelial cells; experiment: xCELLigence proliferation assay (RTCA impedance); details: 400nM added to siCCM2 ECs; RTCA xCelligence impedance over 24h; Figure 1B
Experimental: as §1
Proliferation assay was performed using the xCELLigence Real-Time Cell Analysis (RTCA) DP instrument in combination with E-plate 16 (ACEA Biosciences) coated with 100µL of 100µg/mL collagen 1 (from rat tail) for 30 min at 37°C and washed 2 times with PBS 1X. 50 µL of complete EBM-2 medium was added and baseline without cells was made with RTCA software. 2.5x103 transfected HUVEC (4 wells per condition) were seeded 24h after the second round of transfection in 50µL of complete EBM-2-medium. […] Impedance measurements were recorded every 5 min during 24h. […]

[3] = test system: CCM2-depleted endothelial cells; experiment: Gelatin degradation assay (ECM degradation); details: 800 nM; siCCM2 HUVEC; Figure 3B
Experimental: as §1, with “For double transfections, 30 nM of each siRNA duplexes (Dharmacon smartpool ON-TARGET plus Thermo Scientific) was used: Non-targeting siRNA #1 (ref. D-001810-01), CCM2 siRNA (ref. L-014728-01) and TRPV4 siRNA (ref. L-004195-00).” left out
Coverslips in 24 well-plates were coated with gelatin-Alexa488 dye as previously described (70). siCT and siCCM2 HUVEC were seeded 24h after the second siRNA transfection at 3x10^4/well in OptiMEM medium in presence or absence of the calcium channels inhibitors overnight at 37°C in a 5% CO2 incubator. […] For a quantitative analysis of the degradative skill of siRNA transfected cells, 10 images per condition were randomly acquired and were converted to binary images using B&W thresholding on Imaged. The total area of the black zones corresponding to the total area of degradation of the fluorescent gelatin was measured.

O=C(NC1(c2ccccc2)CC1)c1c(CN2CCC(N3CCCCC3)CC2)c(-c2cccc(C(F)(F)F)c2)nc2cc(Br)ccc12 [GSK2193874, 3-([1,4'-Bipiperidin]-1'-ylmethyl)-7-bromo-N-(1-phenylcyclopropyl)-2-[3-(trifluoromethyl)phenyl]-4-quinolinecarboxamide]
proliferative marker Ki67 [1]: restoration
proliferation rate [2]: restoration
CCM2-depleted ECs capacity to degrade the ECM such as gelatin [3]: inhibits

— patent publication EP4520331A1, “PHARMACEUTICAL COMPOSITION COMPRISING TRPV4 INHIBITOR FOR USE IN THE PREVENTION OR TREATMENT OF CEREBRAL CAVERNOUS MALFORMATIONS (CCM)” (Université Grenoble Alpes, priority 2023, dated 2025)
